Key:
[1] = target: T1, human Cystic Fibrosis Transmembrane Conductance Regulator (CFTR) harboring the ΔF508 mutation (Homo sapiens, UniProt P13569, DEL508-508); test: H441 cell Emax and EC50: HRP-tagged ΔF508-CFTR cell-surface luminescence assay; type: cell-based; conditions: H441 cells expressing HRP-tagged ΔF508-CFTR, 27° C. for two nights; for EC50: 15-point dose-response; for Emax: NCI-H441, % of maximum VX809 signal
T1 construct: expressed in transfected cells; host or cells: H441 carcinoma cell line (G418 selection)
Method in brief: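 H441 cells expressing ΔF508-CFTR with HRP fused in extracellular loop 4 (CMV promoter), ~10K cells/well, 15-point dose range 24.5 to 0.001 μM, incubated at 27° C. for two nights. Surface CFTR read by Luminata Forte luminescence; Emax as % of maximum VX809 signal, plus EC50.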

[2] = target: T2, CFTR (ΔF508 homozygous CF-HBE cells) (Homo sapiens, UniProt P13569, DEL508-508); test: TECC24 AUC fold over DMSO @10 uM: CFTR-mediated transepithelial chloride transport in primary CF-HBE cells; type: cell-based; conditions: 10 μM test agent, 48 hours, forskolin-stimulated IEQ AUC divided by vehicle AUC
T2 construct: Primary human bronchial epithelial cells from a ΔF508 homozygous CF donor; host or cells: primary CF-HBE cells (ΔF508/ΔF508 donor)
Method in brief: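 Primary ΔF508-homozygous CF bronchial epithelial cells were exposed to test agent for 48 h at 36.5° C, then VT and TEER were recorded with benzamil (10 μM), forskolin (10 μM) stimulation and CFTR inhibitor-172 (20 μM) at the end. AUC of equivalent Cl- current between forskolin and inhibitor is expressed as fold over DMSO vehicle.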

T2 sequence (P13569 with tags, fused parts or gaps DEL508-508): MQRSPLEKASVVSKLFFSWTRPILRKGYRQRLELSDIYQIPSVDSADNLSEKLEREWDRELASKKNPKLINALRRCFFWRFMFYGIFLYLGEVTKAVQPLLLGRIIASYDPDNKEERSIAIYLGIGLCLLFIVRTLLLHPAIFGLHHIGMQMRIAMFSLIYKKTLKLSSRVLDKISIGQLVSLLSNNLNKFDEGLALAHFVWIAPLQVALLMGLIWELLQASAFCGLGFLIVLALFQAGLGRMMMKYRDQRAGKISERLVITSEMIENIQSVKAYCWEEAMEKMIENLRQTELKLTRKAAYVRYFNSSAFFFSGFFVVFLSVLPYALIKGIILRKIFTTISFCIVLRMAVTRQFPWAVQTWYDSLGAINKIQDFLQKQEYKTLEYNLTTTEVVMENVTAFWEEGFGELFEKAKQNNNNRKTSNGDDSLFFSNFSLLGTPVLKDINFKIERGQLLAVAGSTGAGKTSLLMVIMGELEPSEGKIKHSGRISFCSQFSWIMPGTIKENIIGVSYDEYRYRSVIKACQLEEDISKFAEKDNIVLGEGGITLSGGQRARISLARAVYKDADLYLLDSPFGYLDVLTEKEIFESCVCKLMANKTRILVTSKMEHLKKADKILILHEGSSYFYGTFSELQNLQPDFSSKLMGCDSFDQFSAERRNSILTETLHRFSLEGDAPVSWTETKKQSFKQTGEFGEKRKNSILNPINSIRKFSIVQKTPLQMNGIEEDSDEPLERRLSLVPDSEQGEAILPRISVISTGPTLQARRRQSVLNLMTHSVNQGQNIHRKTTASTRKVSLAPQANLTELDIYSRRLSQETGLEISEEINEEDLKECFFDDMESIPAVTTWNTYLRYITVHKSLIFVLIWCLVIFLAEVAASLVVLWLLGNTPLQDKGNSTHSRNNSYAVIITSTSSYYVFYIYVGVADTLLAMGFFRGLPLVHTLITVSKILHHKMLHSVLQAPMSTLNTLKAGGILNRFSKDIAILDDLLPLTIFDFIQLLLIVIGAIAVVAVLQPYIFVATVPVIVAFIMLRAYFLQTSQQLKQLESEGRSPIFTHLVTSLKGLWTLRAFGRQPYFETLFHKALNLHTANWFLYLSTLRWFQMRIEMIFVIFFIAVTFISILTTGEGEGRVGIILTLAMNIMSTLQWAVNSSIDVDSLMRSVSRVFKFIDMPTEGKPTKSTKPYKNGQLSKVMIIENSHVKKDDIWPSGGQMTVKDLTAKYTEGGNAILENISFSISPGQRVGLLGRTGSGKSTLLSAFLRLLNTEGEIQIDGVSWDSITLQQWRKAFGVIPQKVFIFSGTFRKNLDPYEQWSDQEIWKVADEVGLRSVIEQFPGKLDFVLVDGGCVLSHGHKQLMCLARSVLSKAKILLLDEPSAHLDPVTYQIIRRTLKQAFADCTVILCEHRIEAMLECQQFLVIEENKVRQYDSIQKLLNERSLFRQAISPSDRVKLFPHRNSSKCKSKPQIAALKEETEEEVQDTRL
T1 sequence (P13569 with tags, fused parts or gaps DEL508-508): as above

Row | SMILES | EC50 [1] [nM] | Emax [1] [%] | TECC24 AUC fold over DMSO [2]
1 | CCC(C)(C)[C@H](NC(=O)c1ccc2sc(C(F)(F)F)cc2c1OCc1ccc(OC(F)(F)F)cc1)C(=O)O [Compound 33-35, (2S)-3,3-dimethyl-2-(4-((4-(trifluoromethoxy)benzyl)oxy)-2-(trifluoromethyl)-benzo[b]thiophene-5-carboxamido)pentanoic acid] | 678 | 199 | A (“A” refers to AUC @10 μM > 6)
2 | CC(C)(c1ccccc1)C(NC(=O)c1ccc2sccc2c1OCC1CCC(F)(F)CC1)C(=O)O (stereo not drawn) [Compound 32-2, 2-(4-((4,4-difluorocyclohexyl)methoxy)-benzo[b]thiophene-5-carboxamido)-3-methyl-3-phenylbutanoic acid] | 3200 | 112 | C (“C” refers to AUC @10 μM < 4)
3 | CCc1cc2ccc(C(=O)N[C@H](C(=O)O)C(C)(C)CC)c(OCc3ccc(OC(F)(F)F)cc3)c2s1 [Compound 33-10, (2S)-2-(2-ethyl-7-((4-(trifluoromethoxy)benzyl)oxy)-benzo[b]thiophene-6-carboxamido)-3,3-dimethylpentanoic acid] | 1250 | 216 | B (“B” refers to AUC @10 μM between 4-6)
4 | CC(C)(C)[C@H](NC(=O)c1ccc2sccc2c1OCc1ccc(C(F)(F)F)cc1)C(=O)O [Compound 32-9, (2S)-3,3-dimethyl-2-(4-((4-(trifluoromethyl)benzyl)oxy)-benzo[b]thiophene-5-carboxamido)butanoic acid] | 1080 | 193 | C (“C” refers to AUC @10 μM < 4)
5 | Cc1c(Cl)sc2ccc(C(=O)N[C@H](C(=O)O)C3(C)CCC3)c(OCc3ccc(OC(F)(F)F)cc3)c12 [Compound 34-6, (S)-2-(2-chloro-3-methyl-4-((4-(trifluoromethoxy)benzyl)oxy)-benzo[b]thiophene-5-carboxamido)-2-(1-methylcyclobutyl)acetic acid] | 1190 | 155 | A (“A” refers to AUC @10 μM > 6)
6 | Cc1cc2c(OCc3ccc(OC(F)(F)F)cc3)c(C(=O)N[C@H](C(=O)O)C(C)(C)C)ccc2s1 [Compound 33-13, (2S)-3,3-dimethyl-2-(2-methyl-4-((4-(trifluoromethoxy)benzyl)oxy)-benzo[b]thiophene-5-carboxamido)butanoic acid] | 377 | 324 | A (“A” refers to AUC @10 μM > 6)
7 | CCC(C)(C)[C@H](NC(=O)c1ccc2cc(Cl)sc2c1OCc1ccc(OC(F)(F)F)cc1)C(=O)O [Compound 33-22, (2S)-2-(2-chloro-7-((4-(trifluoromethoxy)benzyl)oxy)-benzo[b]thiophene-6-carboxamido)-3,3-dimethylpentanoic acid] | 755 | 169 | A (“A” refers to AUC @10 μM > 6)
8 | CC(C)(C)[C@H](NC(=O)c1ccc2sc(-c3cscn3)cc2c1OCc1ccc(C(F)(F)F)cc1)C(=O)O [Compound 33-17, (2S)-3,3-dimethyl-2-(2-(thiazol-4-yl)-4-((4-(trifluoromethyl)benzyl)oxy)-benzo[b]thiophene-5-carboxamido)butanoic acid] | 3200 | 57.7 | C (“C” refers to AUC @10 μM < 4)
9 | CC(C)(C)[C@H](NC(=O)c1ccc2sc(C(F)F)cc2c1OCc1ccc(C(F)(F)F)cc1)C(=O)O [Compound 33-3, (2S)-2-(2-(difluoromethyl)-4-((4-(trifluoromethyl)benzyl)oxy)-benzo[b]thiophene-5-carboxamido)-3,3-dimethylbutanoic acid] | 884 | 350 | A (“A” refers to AUC @10 μM > 6)
10 | CCC(C)(C)[C@H](NC(=O)c1ccc2cc(C(F)(F)F)sc2c1OCc1ccc(C(F)(F)F)cc1)C(=O)O [Compound 33-28, (2S)-3,3-dimethyl-2-(2-(trifluoromethyl)-7-((4-(trifluoromethyl)benzyl)oxy)-[b]thiophene-6-carboxamido)pentanoic acid] | 562 | 130 | A (“A” refers to AUC @10 μM > 6)
11 | Cc1c(Cl)sc2ccc(C(=O)N[C@H](C(=O)O)C3(C)CC3)c(OCc3ccc(C(F)(F)F)cc3)c12 [Compound 34-7, (S)-2-(2-chloro-3-methyl-4-((4-(trifluoromethyl)benzyl)oxy)-benzo[b]thiophene-5-carboxamido)-2-(1-methylcyclopropyl)acetic acid] | 612 | 84.2 | A (“A” refers to AUC @10 μM > 6)
12 | CCC(C)(C)[C@H](NC(=O)c1ccc2sc(Cl)c(C)c2c1OCc1ccc(OC(F)(F)F)cc1)C(=O)O [Compound 34-1, (S)-2-(2-chloro-3-methyl-4-((4-(trifluoromethoxy)benzyl)oxy)-benzo[b]thiophene-5-carboxamido)-3,3-dimethylpentanoic acid] | 358 | 179 | A (“A” refers to AUC @10 μM > 6)
13 | CC(C)c1cc2c(OCc3ccc(C(F)(F)F)cc3)c(C(=O)N[C@H](C(=O)O)C(C)(C)C)ccc2s1 [Compound 33-34, (2S)-2-(2-isopropyl-4-((4-(trifluoromethyl)benzyl)oxy)-benzo[b]thiophene-5-carboxamido)-3,3-dimethylbutanoic acid] | 637 | 238 | A (“A” refers to AUC @10 μM > 6)
14 | CCC(C)(C)[C@H](NC(=O)c1ccc2sc(-c3cscn3)cc2c1OCc1ccc(C(F)(F)F)cc1)C(=O)O [Compound 33-20, (2S)-3,3-dimethyl-2-(2-(thiazol-4-yl)-4-((4-(trifluoromethyl)benzyl)oxy)-benzo[b]thiophene-5-carboxamido)pentanoic acid] | 2780 | 81.2 | C (“C” refers to AUC @10 μM < 4)
15 | Cc1csc2ccc(C(=O)N[C@H](C(=O)O)C(C)(C)C)c(OCc3ccc(C(F)(F)F)cc3)c12 [Compound 35-2, (2S)-3,3-dimethyl-2-[[3-methyl-4-[[4-(trifluoromethyl)phenyl]methoxy]-benzothiophene-5-carbonyl]amino]butanoic acid] | 470 | 146 | C (“C” refers to AUC @10 μM < 4)
16 | CCC(C)(C)[C@H](NC(=O)c1ccc2cc(Cl)sc2c1OCc1ccc(C(F)(F)F)cc1)C(=O)O [Compound 33-15, (2S)-2-(2-chloro-7-((4-(trifluoromethyl)benzyl)oxy)-benzo[b]thiophene-6-carboxamido)-3,3-dimethylpentanoic acid] | 880 | 200 | A (“A” refers to AUC @10 μM > 6)
17 | CCC(C)(C)[C@H](NC(=O)c1ccc2cc(CCC(C)C)sc2c1OCc1ccc(C(F)(F)F)cc1)C(=O)O [Compound 33-32, (2S)-2-(2-isopentyl-7-((4-(trifluoromethyl)benzyl)oxy)-benzo[b]thiophene-6-carboxamido)-3,3-dimethylpentanoic acid] | 277 | 168 | B (“B” refers to AUC @10 μM between 4-6)
18 | CC(C)c1cc2ccc(C(=O)N[C@H](C(=O)O)C(C)(C)C)c(OCc3ccc(OC(F)(F)F)cc3)c2s1 [Compound 33-12, (2S)-2-(2-isopropyl-7-((4-(trifluoromethoxy)benzyl)oxy)-benzo[b]thiophene-6-carboxamido)-3,3-dimethylbutanoic acid] | 999 | 150 | C (“C” refers to AUC @10 μM < 4)
19 | CC(C)c1cc2ccc(C(=O)N[C@H](C(=O)O)C(C)(C)C)c(OCc3ccc(C(F)(F)F)cc3)c2s1 [Compound 33-31, (2S)-2-(2-isopropyl-7-((4-(trifluoromethyl)benzyl)oxy)-benzo[b]thiophene-6-carboxamido)-3,3-dimethylbutanoic acid] | 532 | 131 | C (“C” refers to AUC @10 μM < 4)

From patent US12630521B2, “Arylamides and methods of use thereof” (Genzyme Corporation, priority 2019, dated 2026)
